From the supplement of paper PMC10307832

Legend:
Experiment in all cases: relative viability (nuclei count vs DMSO), 5 days (fraction); higher = more cells survive
NCI-H3122 = system: NCI-H3122
Method in brief: (§1)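 Relative viability was taken as the ratio of nuclei in treated wells to nuclei in vehicle wells. Lung cancer cell lines in 1536-well plates received compounds by pin tool one day after seeding, either one drug alone or a fixed anchor-drug dose plus five library-drug doses (not always all listed) in √10 steps. Nuclei were counted on 4× images after 5 days of treatment, and values are medians of duplicate plates.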

NCI-H1755 = system: NCI-H1755
Method in brief: as §1

ChaGo-K-1 = system: ChaGo-K-1
Method in brief: as §1

NCI-H1395 = system: NCI-H1395
Method in brief: as §1

NCI-H2087 = system: NCI-H2087
Method in brief: as §1

CAL-12T = system: CAL-12T
Method in brief: as §1

NCI-H1734 = system: NCI-H1734
Method in brief: as §1

ABC-1 = system: ABC-1
Method in brief: as §1

NCI-H1944 = system: NCI-H1944
Method in brief: as §1

NCI-H1651 = system: NCI-H1651
Method in brief: as §1

NCI-H460 = system: NCI-H460
Method in brief: as §1

LU99A = system: LU99A
Method in brief: as §1

UMC-11 = system: UMC-11
Method in brief: as §1

NCI-H2170 = system: NCI-H2170
Method in brief: as §1

NCI-H2405 = system: NCI-H2405
Method in brief: as §1

PC-3 [JPC-3] = system: PC-3 [JPC-3]
Method in brief: as §1

NCI-H1793 = system: NCI-H1793
Method in brief: as §1

RERF-LC-KJ = system: RERF-LC-KJ
Method in brief: as §1

NCI-H2228 = system: NCI-H2228
Method in brief: as §1

EPLC-272H = system: EPLC-272H
Method in brief: as §1

LOU-NH91 = system: LOU-NH91
Method in brief: as §1

LC-2-ad = system: LC-2-ad
Method in brief: as §1

HCC-366 = system: HCC-366
Method in brief: as §1

HCC-78 = system: HCC-78
Method in brief: as §1

In the case of CC(C)Oc1cc(Nc2nc(N[C@@H](C)c3ccc(F)cn3)ncc2Cl)n[nH]1 [AZ23] + CCNC(=O)c1noc(-c2cc(C(C)C)c(O)cc2O)c1-c1ccc(CN2CCOCC2)cc1 [Luminespib] (partner 0.01 µM), the relative viability (NCI-H3122; first compound 0.01 µM) is reported as 0.111, the relative viability (NCI-H3122; first compound 0.03162 µM) is reported as 0.0892 and the relative viability (NCI-H3122; first compound 0.3162 µM) is reported as 0.0986. For the same compound, the relative viability (NCI-H1755; first compound 0.01 µM) was 0.293, the relative viability (NCI-H1755; first compound 0.03162 µM) was 0.605 and the relative viability (NCI-H1755; first compound 0.3162 µM) was 0.634. The relative viability (ChaGo-K-1; first compound 0.01 µM) was 0.637, the relative viability (ChaGo-K-1; first compound 0.03162 µM) was 0.687 and the relative viability (ChaGo-K-1; first compound 0.3162 µM) was 0.7. It also gave a relative viability (NCI-H1395; first compound 0.03162 µM) of 0.658, a relative viability (NCI-H1395; first compound 0.3162 µM) of 0.771 and a relative viability (NCI-H2087; first compound 0.01 µM) of 0.151. The relative viability (NCI-H2087; first compound 0.03162 µM) was 0.171, the relative viability (NCI-H2087; first compound 0.3162 µM) was 0.169 and the relative viability (CAL-12T; first compound 0.03162 µM) was 0.364. For the same compound, the relative viability (CAL-12T; first compound 0.3162 µM) was 0.568, the relative viability (NCI-H1734; first compound 0.01 µM) was 0.184 and the relative viability (NCI-H1734; first compound 0.03162 µM) was 0.181. The relative viability (NCI-H1734; first compound 0.3162 µM) was 0.169, the relative viability (ABC-1; first compound 0.03162 µM) was 0.707 and the relative viability (ABC-1; first compound 0.3162 µM) was 0.624. It also gave a relative viability (NCI-H1944; first compound 0.01 µM) of 0.557, a relative viability (NCI-H1944; first compound 0.03162 µM) of 0.75 and a relative viability (NCI-H1944; first compound 0.3162 µM) of 0.726. For the same compound, the relative viability (NCI-H1651; first compound 0.03162 µM) was 0.753, the relative viability (NCI-H1651; first compound 0.3162 µM) was 0.672 and the relative viability (NCI-H460; first compound 0.01 µM) was 0.0317. For the same compound, the relative viability (NCI-H460; first compound 0.03162 µM) was 0.0332, the relative viability (NCI-H460; first compound 0.3162 µM) was 0.0248 and the relative viability (LU99A; first compound 0.01 µM) was 0.217. For the same compound, the relative viability (LU99A; first compound 0.03162 µM) was 0.188, the relative viability (LU99A; first compound 0.3162 µM) was 0.298 and the relative viability (UMC-11; first compound 0.01 µM) was 1.15. It also gave a relative viability (UMC-11; first compound 0.03162 µM) of 1.05, a relative viability (UMC-11; first compound 0.3162 µM) of 0.988 and a relative viability (NCI-H2170; first compound 0.01 µM) of 1.01. It also gave a relative viability (NCI-H2170; first compound 0.03162 µM) of 0.739, a relative viability (NCI-H2170; first compound 0.3162 µM) of 0.822 and a relative viability (NCI-H2405; first compound 0.01 µM) of 0.717. For the same compound, the relative viability (NCI-H2405; first compound 0.03162 µM) was 0.679, the relative viability (NCI-H2405; first compound 0.3162 µM) was 0.661 and the relative viability (PC-3 [JPC-3]; first compound 0.01 µM) was 0.581. It also gave a relative viability (PC-3 [JPC-3]; first compound 0.03162 µM) of 0.582, a relative viability (PC-3 [JPC-3]; first compound 0.3162 µM) of 0.637 and a relative viability (NCI-H1793; first compound 0.01 µM) of 0.158. It also gave a relative viability (NCI-H1793; first compound 0.03162 µM) of 0.194, a relative viability (NCI-H1793; first compound 0.3162 µM) of 0.143 and a relative viability (RERF-LC-KJ; first compound 0.01 µM) of 1.34. The relative viability (RERF-LC-KJ; first compound 0.03162 µM) was 1.43, the relative viability (RERF-LC-KJ; first compound 0.3162 µM) was 1.38 and the relative viability (NCI-H2228; first compound 0.01 µM) was 0.179. It also gave a relative viability (NCI-H2228; first compound 0.03162 µM) of 0.141, a relative viability (NCI-H2228; first compound 0.3162 µM) of 0.0999 and a relative viability (EPLC-272H; first compound 0.01 µM) of 0.15. It also gave a relative viability (EPLC-272H; first compound 0.03162 µM) of 0.203, a relative viability (EPLC-272H; first compound 0.3162 µM) of 0.551 and a relative viability (LOU-NH91; first compound 0.01 µM) of 0.387. It also gave a relative viability (LOU-NH91; first compound 0.03162 µM) of 0.349, a relative viability (LOU-NH91; first compound 0.3162 µM) of 0.324 and a relative viability (LC-2-ad; first compound 0.01 µM) of 1.26. It also gave a relative viability (LC-2-ad; first compound 0.03162 µM) of 0.965 and a relative viability (LC-2-ad; first compound 0.3162 µM) of 0.93.

Work on CC(C)Oc1cc(Nc2nc(N[C@@H](C)c3ccc(F)cn3)ncc2Cl)n[nH]1 [AZ23] + NC(=O)Nc1cc(-c2cccc(F)c2)sc1C(=O)N[C@H]1CCCNC1 [AZD7762] (partner 0.2 µM) yielded a relative viability (NCI-H3122; first compound 0.01 µM) of 1.22, a relative viability (NCI-H3122; first compound 0.03162 µM) of 1.03 and a relative viability (NCI-H3122; first compound 0.3162 µM) of 1.02. It also gave a relative viability (NCI-H1755; first compound 0.01 µM) of 0.413, a relative viability (NCI-H1755; first compound 0.03162 µM) of 0.471 and a relative viability (NCI-H1755; first compound 0.3162 µM) of 0.477. For the same compound, the relative viability (ChaGo-K-1; first compound 0.01 µM) was 0.93, the relative viability (ChaGo-K-1; first compound 0.03162 µM) was 0.811 and the relative viability (ChaGo-K-1; first compound 0.3162 µM) was 0.959. The relative viability (NCI-H1395; first compound 0.03162 µM) was 0.375, the relative viability (NCI-H1395; first compound 0.3162 µM) was 0.432 and the relative viability (HCC-366; first compound 0.01 µM) was 0.239. The relative viability (HCC-366; first compound 0.03162 µM) was 0.423, the relative viability (HCC-366; first compound 0.3162 µM) was 0.496 and the relative viability (NCI-H2087; first compound 0.01 µM) was 1.6. The relative viability (NCI-H2087; first compound 0.03162 µM) was 1.41, the relative viability (NCI-H2087; first compound 0.3162 µM) was 1.32 and the relative viability (CAL-12T; first compound 0.01 µM) was 0.614. It also gave a relative viability (CAL-12T; first compound 0.03162 µM) of 0.689, a relative viability (CAL-12T; first compound 0.3162 µM) of 0.717 and a relative viability (NCI-H1734; first compound 0.01 µM) of 0.602. The relative viability (NCI-H1734; first compound 0.03162 µM) was 0.688, the relative viability (NCI-H1734; first compound 0.3162 µM) was 0.795 and the relative viability (ABC-1; first compound 0.03162 µM) was 1.23. The relative viability (ABC-1; first compound 0.3162 µM) was 0.835, the relative viability (NCI-H1944; first compound 0.01 µM) was 0.413 and the relative viability (NCI-H1944; first compound 0.03162 µM) was 0.532. It also gave a relative viability (NCI-H1944; first compound 0.3162 µM) of 0.646, a relative viability (NCI-H1651; first compound 0.01 µM) of 0.376 and a relative viability (NCI-H1651; first compound 0.03162 µM) of 0.541. For the same compound, the relative viability (NCI-H1651; first compound 0.3162 µM) was 0.623, the relative viability (NCI-H460; first compound 0.01 µM) was 0.722 and the relative viability (NCI-H460; first compound 0.03162 µM) was 0.751. It also gave a relative viability (NCI-H460; first compound 0.3162 µM) of 0.799, a relative viability (LU99A; first compound 0.01 µM) of 0.269 and a relative viability (LU99A; first compound 0.03162 µM) of 0.444. For the same compound, the relative viability (LU99A; first compound 0.3162 µM) was 0.507, the relative viability (NCI-H2170; first compound 0.01 µM) was 0.885 and the relative viability (NCI-H2170; first compound 0.03162 µM) was 0.887. For the same compound, the relative viability (NCI-H2170; first compound 0.3162 µM) was 1.06, the relative viability (NCI-H2405; first compound 0.01 µM) was 0.538 and the relative viability (NCI-H2405; first compound 0.03162 µM) was 0.864. The relative viability (NCI-H2405; first compound 0.3162 µM) was 0.843, the relative viability (PC-3 [JPC-3]; first compound 0.01 µM) was 0.663 and the relative viability (PC-3 [JPC-3]; first compound 0.03162 µM) was 0.837. The relative viability (PC-3 [JPC-3]; first compound 0.3162 µM) was 0.77, the relative viability (NCI-H1793; first compound 0.01 µM) was 0.361 and the relative viability (NCI-H1793; first compound 0.03162 µM) was 0.498. For the same compound, the relative viability (NCI-H1793; first compound 0.3162 µM) was 1.3, the relative viability (RERF-LC-KJ; first compound 0.01 µM) was 1.09 and the relative viability (RERF-LC-KJ; first compound 0.03162 µM) was 1.02. For the same compound, the relative viability (RERF-LC-KJ; first compound 0.3162 µM) was 1.11, the relative viability (HCC-78; first compound 0.01 µM) was 0.516 and the relative viability (HCC-78; first compound 0.03162 µM) was 0.697. For the same compound, the relative viability (HCC-78; first compound 0.3162 µM) was 0.681, the relative viability (EPLC-272H; first compound 0.03162 µM) was 0.254 and the relative viability (EPLC-272H; first compound 0.3162 µM) was 0.251. The relative viability (LOU-NH91; first compound 0.01 µM) was 0.777, the relative viability (LOU-NH91; first compound 0.03162 µM) was 0.853 and the relative viability (LOU-NH91; first compound 0.3162 µM) was 0.803. The relative viability (LC-2-ad; first compound 0.01 µM) was 1.04, the relative viability (LC-2-ad; first compound 0.03162 µM) was 1.05 and the relative viability (LC-2-ad; first compound 0.3162 µM) was 1.02.
